Data taken from publication PMC11887451, “Leveraging Immunogenic Cell Death to Enhance the Immune Response against Malignant Pleural Mesothelioma Tumors” (Journal of the American Chemical Society, 2025).

Tests used:
[1] = tested on: human malignant mesothelioma cell line JU77; experiment: MTT cytotoxicity assay, 72 h, JU77; format: cell-based; settings: exposure time 72 h
From the text: (§1) Human malignant mesothelioma cancer cell lines JU77 and LO68 were obtained from Cell Bank Australia (Children's Medical Research Institute, Westmead, Australia). Mouse malignant mesothelioma cancer cell line AB12, human nonmalignant mesothelioma cancer cell line Met5A (mesothelial cells), mouse macrophage cell line J774 and human monocytic cell line THP-1 were obtained from American Type Culture Collection (ATCC) (Rockville, MD, USA). Human malignant mesothelioma cell lines VMC23 (epithelial), Meso82 (sarcomatous), Meso92 (biphasic), were kindly provided by Prof. Walter Berger (Medical University of Vienna). All cells except for J774 were cultured in RPMI and J774 cells were cultured in DMEM. Both types of media were supplemented with 10% FBS and 1% penicillin-streptomycin (10,000 U/mL). Cells were grown in tissue culture flasks (75 cm2 and 25 cm2, SPL Life Sciences Co., Ltd., Korea). All cell lines were grown at 37 °C in a humidified atmosphere of 95% air and 5% CO 2 and passaged when they reached 80–90% confluency. All Au stock solutions were prepared in 1% DMSO in the respected medium, ensuring that cell viability was not inhibited.
(§2) The cytotoxicity of compounds was determined using an MTT colorimetric test. The cells were harvested from culture flasks by trypsinization and seeded into Cellstar 96 -well microculture plates (Greiner Bio -One) at the seeding density of 6000 cells per well (6 × 10^4 cells/mL). After
(§3) the cells were allowed to resume exponential growth for 16 h, they were exposed to drugs at
(§4) different concentrations in media for 72 h. The drugs were diluted in a complete medium at the desired concentration added to each well (100 μL) and serially diluted in other wells. After exposure for 72 h, the media was replaced with MTT in media (5 mg/mL, 100 μL/well) and

[2] = tested on: murine malignant mesothelioma cell line AB12; experiment: MTT cytotoxicity assay, 72 h, AB12; format: cell-based, mouse; settings: exposure time 72 h
[3] = tested on: patient-derived Meso84 cell line (sarcomatoid MPM); experiment: MTT cytotoxicity assay, 72 h, Meso84; format: cell-based, human; settings: exposure time 72 h
From the text: as §1, §2, §3, §4

[4] = tested on: human nonmalignant mesothelioma cell line Met5A; experiment: MTT cytotoxicity assay, 72 h, Met5A; format: cell-based; settings: exposure time 72 h
From the text: Cell lines and culture conditions
Mouse malignant mesothelioma cancer cell line AB12, human nonmalignant mesothelioma cancer cell line Met5A (mesothelial cells), mouse macrophage cell line J774 and human monocytic cell line THP-1 were obtained from American Type Culture Collection (ATCC) (Rockville, MD, USA). Human malignant mesothelioma cell lines VMC23 (epithelial), Meso82 (sarcomatous), Meso92 (biphasic), were kindly provided by Prof. Walter Berger (Medical University of Vienna). All cells except for J774 were cultured in RPMI and J774 cells were cultured in DMEM. Both types of media were supplemented with 10% FBS and 1% penicillin-streptomycin (10,000 U/mL). Cells were grown in tissue culture flasks (75 cm2 and 25 cm2, SPL Life Sciences Co., Ltd., Korea). All cell lines were grown at 37 °C in a humidified atmosphere of 95% air and 5% CO 2 and passaged when they reached 80–90% confluency. All Au stock solutions were prepared in 1% DMSO in the respected medium, ensuring that cell viability was not inhibited. The Au concentration in the stock solutions was confirmed through inductively coupled plasma optical emission spectrometry. The stock solution of pemetrexed (10 mM) was prepared in Milli -Q water.
Inhibition of c ell viability assay
as §2, §3, §4

[5] = tested on: patient-derived VMC23 cell line (epithelioid MPM); experiment: MTT cytotoxicity assay, 72 h, VMC23; format: cell-based, human; settings: exposure time 72 h
[6] = Aqueous stability by RP-HPLC in 1:1 DMSO:H2O over 72 h; format: physicochemical; settings: room temperature
Method: The aqueous stability of the Au(III)–DTC complexes was assessed by monitoring their RP-HPLC profiles in a 1:1 DMSO:H2O mixture at room temperature over a 3-day period (Supplementary Figures 112–146).
Determination of the purity of cyclometalated Au( III) complexes was performed using analytical HPLC on a Shimadzu Prominence System equipped with a DGU -20A3 Degasser, two LC-20AD Liquid Chromatography Pump, a SPD-20A UV/Vis Detector and a Shim Pack GVP-ODS 2.0 mm 18 column ([…], 120Å, 250 mm × 4.60 mm i.d.). The analysis was conducted at r.t. with a flow rate of 1.0 mL/min and detection at 254 and 280 nm. Mobile phase A was H2O + 0.1% Trifluoroacetic acid (TFA) while mobile phase B is ACN + 0.1% TFA. The gradient program parameters were as follows: mobil e phase B was increased from 30 to 95% over 30 min. 95% mobile phase B was maintained for 10 min, 95 to 30% over 5 min, and finally returned to 30% for 10 min for the next analysis. LogP values of the complexes were calculated based on the HPLC retention times derived from the calibration standard curve. The calibration standard curve was established using 2-butanone, phenylacetonitrile, anisole, ethyl benzoate, benzophenone, diphenyl ether and triphenylamine. To conduct an aqueous stability study, the HPLC profiles of the sample stock solutions were diluted to a 1:1 ratio of DMSO to […]
water. […]

[7] = tested on: human malignant mesothelioma cell line LO68; experiment: MTT cytotoxicity assay, 72 h, LO68; format: cell-based; settings: exposure time 72 h
From the text: as §1, §2, §3, §4

[8] = tested on: patient-derived Meso92 cell line (biphasic MPM); experiment: MTT cytotoxicity assay, 72 h, Meso92; format: cell-based, human; settings: exposure time 72 h
[9] = tested on: M0-differentiated THP-1 cells; experiment: MTT-based viability assay on M0-differentiated THP-1 cells, 72 h; format: cell-based, human; settings: 72-h exposure, compared with AB12 cells
Method: incubated for an additional 50 min. Subsequently, the medium was aspirated, and the purple formazan crystals formed in viable cells were dissolved in DMSO (100 μL/well). Optical densities were measured at 570 nm using a BioTek Synergy H1 microplate and MultiskanTM SkyHigh plate readers. The quantity of viable cells was expressed in terms of treated/control (T/C) values in comparison to untreated control cells, and 50% inhibitory concentrations (IC 50) were calculated from concentration-effect curves by interpolation. An evaluation was based on means from at least three independent experiments, each comprising three replicat es per […]
For macrophage analyses, the acute monocytic leukemia -derived THP-1 cell line (ATCC) was used as a model. 1 × 104 THP-1 cells were seeded per well in 96-well plates in RPMI-1640 with 10% FCS and treated for 24 h with 75 nM phorbol 12-myristate 13-acetate (PMA, Sigma-Aldrich) to induce M0 macrophage differentiation. After the differentiation period, PMA was replaced by fresh culture medium to recover for 2h. Afterwards increasing concentrations of 1G, 5A, 5B and 5G were added for a 72-h continuous drug exposure assay. In parallel, the murine mesothelioma cell line AB12 was seeded into 96 -well plates at 2.5 × 10^3 cells/well and were allowed to attach for 24 h. Gold compounds were added to the cells as described for the THP-1 model above. After the incubation period of 72 h, cell viability was determined by an MTT-based assay (EU4U, Biomedica) following the instructions of the manufacturer. DMSO had not impact on the cell viability at the concentrations used. […]

[10] = determined from retention time using RP-HPLC
[11] = tested on: AB12 cells phagocytosed by J774 macrophages; experiment: Phagocytosis assay, flow cytometry; format: cell-based, mouse; settings: AB12 treated 100 min at 5 × IC50 (72 h), 16 h with J774 macrophages
Method: page 21: incubated for an additional 50 min. Subsequently, the medium was aspirated, and the purple formazan crystals formed in viable cells were dissolved in DMSO (100 μL/well). Optical densities were measured at 570 nm using a BioTek Synergy H1 microplate and MultiskanTM SkyHigh plate readers. The quantity of viable cells was expressed in terms of treated/control (T/C) values in comparison to untreated control cells, and 50% inhibitory concentrations (IC 50) were calculated from concentration-effect curves by interpolation. An evaluation was based on means from at least three independent experiments, each comprising three […] concentration level. For macrophage analyses, the acute monocytic leukemia -derived THP-1 cell line (ATCC) was used as a model. 1 × 104 THP-1 cells were seeded per well in 96-well plates in RPMI-1640 with 10% FCS and treated for 24 h with 75 nM phorbol 12-myristate 13-acetate (PMA, Sigma- Aldrich) to induce M0 macrophage differentiation. After the differentiation period, PMA was replaced by fresh culture medium to recover for 2h. Afterwards increasing concentrations of 1G, 5A, 5B and 5G were added for a 72-h continuous drug exposure assay. In parallel, the […] were allowed to attach for 24 h. Gold compounds were added to the cells as described for the THP-1 model above. After the incubation period of 72 h, cell viability was determined by an MTT-based assay (EU4U, Biomedica) following the instructions of the manufacturer. DMSO had not impact on the cell viability at the concentrations used. Flow cytometry experiments Phagocytosis assay […] with RPMI, centrifuged (300 × g, 5 min) and labelled with CellTracker Red CMTPX Dye (0.72 μM for 5 × 10^5 cells) at 37°C for 30 minutes in 1 ml of serum -free RPMI. Following S21 page 22: centrifugation of the cells (300 × g, 5 min), 5 ml of fresh RPMI was introduced, and the cells were seeded at a density of 5 x 10^5 cells per well into Cellstar 6-well plates (Greiner Bio-One) (1 ml per well). J774 macrophages (70-80% confluence in a T75 flask) were detached by scraping, centrifuged (300 × g, 5 min). The medium was substituted with 1 ml of DMEM containing CellTracker Green CMFDA (1 μM) and the J774 macrophages were stained at 37°C for 30 minutes. Following centrifugation of the J774 macrophages (300 × g, 5 min), 5 ml of fresh DMEM was introduced, and the macrophages were seeded into a 100 cm2 petri dish (SPL Life Sciences, Korea). After 24 h, the media in AB12 cells was replaced with 1 ml of fresh […] for 100 minutes. After removing the drug-containing media, the cells were trypsinized (0.5 ml), neutralized with 1 ml of RPMI, centrifuged (300 × g, 5 min) and counted. From each sample, […] cells into 6-well plates. AB12 cells and J774 macrophages were co-incubated for 16 h at 37°C and 5% CO2, detached by scraping, centrifuged (300 × g, 5 min), and the pellets were resuspended in PBS for immediate analysis using a CytoFLEX Flow Cytometer (Beckman Coulter, USA). The percentage of phagocytosis was determined by calculating the number of double-positive macrophages (Q2) over the total number of macrophages (Q2 + Q3). […] Annexin V/PI assay AB12 cells were seeded into Cellstar 6-well plates (Greiner Bio-One) at a density of 5 × 10^5 cells/well (1 ml per well). […] The medium was removed and cells were washed with PBS (2 × 1 mL). Afterwards the cells were […] S22

[12] = tested on: AB12 cells in BALB/c mice; experiment: In vivo vaccination model; design: species or system mouse; settings: within the first 30 days after vaccination, n = 8
From the text: Initially, AB12 cells underwent pretreatment with varying concentrations of Au(III) complexes, and the induced cell death and release of desired ICD biomarkers were monitored over time. Upon reaching a cell death rate of 65%–75%, BALB/c mice (n = 8) were subcutaneously injected in the left flank with a vaccine containing 3 × 10^5 of live/dying/dead cells, while the vehicle group received injections of PBS. Seven days postvaccine administration, the immunized mice were rechallenged by inoculating the same number of live AB12 cells (without any prior treatment) into the right flanks (Figure 5A). The progression of tumor growth on the right flanks was monitored using a caliper.
AB12 cells were seeded into Cellstar 24-well plates (Greiner Bio-One) at a density of 1.8 × 104
cells/ml (1 ml per well) and allowed to grow exponentially for 16 hours. Subsequently, the
medium was replaced with 1 ml of fresh medium containing compounds of interest at
predetermined concentrations (with a minimum of 4 wells per treatment condition). These
concentrations were selected to induce 65-75% cell death.
Subsequently, the culture
medium was aspirated, and the cells were washed twice with 1 mL of PBS. The cell
concentration was adjusted to 3 × 10^5 cells (including dead/dying/live cells) per 100 μL of PBS,
and the ratio of dead/live cells was assessed using the Invitrogen Countess 3 cell counter. In
the subsequent experiment, BALB/c mice (8 mice per group) were subcutaneously injected
with 0.1 mL of AB12 cells (3 × 10^5 cells/mL, including dead/dying/live cells) or the
corresponding vehicle (PBS) on the left flank. Tumor growth was monitored daily.
After 7 days, the mice were subcutaneously injected with
0.1 mL of AB12 cells (3 × 10^5 cells/mL, live cells) on the right flank. Regular measurements
of body weights and tumor sizes were taken. Mice that developed palpable tumors were
euthanized for further analysis.

Structure (SMILES)	IC50 [1] [nM]	IC50 [2] [nM]	IC50 [3] [nM]	IC50 [4] [nM]	IC50 [5] [nM]	hydrolysis over the 72-h period [6]	minor RP-HPLC peak, share of the total area after 24 h [6] [%]	minor RP-HPLC peak, share of the total area after 72 h [6]	IC50 [7] [nM]	IC50 [8] [nM]	sensitivity of THP-1-derived macrophages [9]	LogP [10]	phagocytosis rate [11]	mice that developed tumors after vaccination [12]
F[P-](F)(F)(F)(F)F.c1cc[c]2c(c1)Cc1cccc[n+]1[Au-]21[S]C(=[N+]2CCCC2)[S]1 (stereo not shown) [2F]	1100 ± 100	290 ± 40	560 ± 100	730 ± 120	970 ± 260	less than 10%	5	9%	720 ± 120	1000 ± 300	–	–	–	–
CC[N+](CC)=C1[S][Au-]2([S]1)[c]1ccccc1Nc1cccc[n+]12.F[P-](F)(F)(F)(F)F (stereo not shown) [5B]	190 ± 50	53 ± 2	63 ± 19	180 ± 50	300 ± 90	–	–	–	240 ± 20	210 ± 60	highly sensitive	–	–	–
COC1c2cccc[c]2[Au-]2([S]C(=[N+]3CCCCC3)[S]2)[n+]2ccccc21.F[P-](F)(F)(F)(F)F (racemic) [4H]	2400 ± 200	220 ± 30	330 ± 80	680 ± 140	2800 ± 300	–	–	–	2500 ± 100	1700 ± 300	–	2.33	–	–
COC1c2cccc[c]2[Au-]2([S]C(=[N+](Cc3ccccc3)Cc3ccccc3)[S]2)[n+]2ccccc21.F[P-](F)(F)(F)(F)F (racemic) [4D]	1700 ± 200	2300 ± 100	2900 ± 700	3200 ± 300	4200 ± 700	–	–	–	2300 ± 600	4100 ± 900	–	–	35% ± 9%	–
CC[N+](=C1[S][Au-]2([S]1)[c]1ccccc1C(OC)c1cccc[n+]12)c1ccccc1.F[P-](F)(F)(F)(F)F (racemic) [4E]	3200 ± 300	1900 ± 400	2300 ± 600	1400 ± 300	4300 ± 800	less than 10%	5	7%	4500 ± 500	5300 ± 200	–	–	–	–
C[N+](C)=C1[S][Au-]2([S]1)[c]1ccccc1Cc1cccc[n+]12.F[P-](F)(F)(F)(F)F (stereo not shown) [2A]	2800 ± 200	170 ± 20	220 ± 60	430 ± 80	8400 ± 1000	–	–	–	1200	260 ± 40	–	–	–	–
F[P-](F)(F)(F)(F)F.c1cc[c]2c(c1)Cc1cccc[n+]1[Au-]21[S]C(=[N+]2CCCCC2)[S]1 (stereo not shown) [2H]	2000 ± 500	310 ± 80	300 ± 70	2200 ± 500	8400 ± 1300	–	–	–	1900 ± 300	5200 ± 1200	–	2.56	–	–
CC[N+](=C1[S][Au-]2([S]1)[c]1ccccc1Cc1cccc[n+]12)c1ccccc1.F[P-](F)(F)(F)(F)F (stereo not shown) [2E]	1600 ± 200	2700 ± 600	1600 ± 400	3000 ± 600	2000 ± 600	less than 10%	4	remained unchanged	2300 ± 100	1600 ± 200	–	–	–	–
F[P-](F)(F)(F)(F)F.c1cc[c]2c(c1)-c1cccc[n+]1[Au-]21[S]C(=[N+]2CCCCCC2)[S]1 (stereo not shown) [1G]	220 ± 30	1100 ± 100	500 ± 40	430 ± 90	720 ± 140	–	–	–	500 ± 120	1400 ± 200	highly sensitive	–	–	–
CC[N+](=C1[S][Au-]2([S]1)[c]1ccccc1-c1cccc[n+]12)c1ccccc1.F[P-](F)(F)(F)(F)F (stereo not shown) [1E]	850 ± 100	840 ± 200	1200 ± 100	690 ± 130	1300 ± 200	–	–	–	2300 ± 300	2000 ± 300	–	–	–	–
F[P-](F)(F)(F)(F)F.O=C1c2cccc[c]2[Au-]2([S]C(=[N+]3CCCCCC3)[S]2)[n+]2ccccc21 (stereo not shown) [3G]	1100 ± 200	350 ± 70	1800 ± 300	1500 ± 200	1400 ± 200	–	–	–	1200 ± 100	1800 ± 200	–	–	–	–
CCCC[N+](CCCC)=C1[S][Au-]2([S]1)[c]1ccccc1Nc1cccc[n+]12.F[P-](F)(F)(F)(F)F (stereo not shown) [5C]	86 ± 22	130 ± 30	180 ± 30	65 ± 15	640 ± 140	–	–	–	360 ± 70	410 ± 60	–	–	35% ± 9%	≈ 50%
